Measurements: PubChem BioAssay (NCI)
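Tested at 5 concentrations; 48 h exposure; 96-well plates; endpoints linearly interpolated, else capped at highest concentration. The concentration for full growth arrest is given as TGI.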

Legend:
Experiment in all cases: NCI tumour cell line growth inhibition, 48 h
[1] = system: OVCAR-3 ovarian
[2] = system: HOP-62 NSCLC
[3] = system: HCT-15 colon
[4] = system: MALME-3M melanoma
[5] = system: OVCAR-5 ovarian
[6] = system: HS 578T breast
[7] = system: HL-60(TB) leukemia
[8] = system: UACC-62 melanoma
[9] = system: SR leukemia
[10] = system: A549 NSCLC
[11] = system: CCRF-CEM leukemia
[12] = system: NCI/ADR-RES ovarian
[13] = system: SW-620 colon
[14] = system: CAKI-1 renal
[15] = system: SK-MEL-2 melanoma
[16] = system: KM12 colon
[17] = system: NCI-H23 lung
[18] = system: K-562 leukemia
[19] = system: M14 melanoma
[20] = system: MDA-N

O=C(NC1CCN(Cc2ccccc2)CC1)c1ccccc1I
TGI [1]: > 100 µM
TGI [2]: 37.9 µM
TGI [3]: 36.7 µM
TGI [4]: 31.6 µM
TGI [5]: 58 µM
TGI [6]: 50.2 µM
TGI [7]: > 100 µM
TGI [8]: 34.9 µM
TGI [9]: > 100 µM
TGI [10]: > 100 µM
TGI [11]: 86.2 µM
TGI [12]: 92.3 µM
TGI [13]: 38.9 µM
TGI [14]: > 100 µM
TGI [15]: 48.7 µM
TGI [16]: 34.6 µM
TGI [17]: 72.1 µM
TGI [18]: > 100 µM
TGI [19]: 33.4 µM

COc1ccc(C2S/C(=C\c3cccc([N+](=O)[O-])c3)C(=O)N2NC(=O)Cc2ccccc2)cc1 (stereo not given)
TGI [2]: > 100 µM
TGI [3]: > 100 µM
TGI [4]: > 100 µM
TGI [5]: > 100 µM
TGI [7]: > 100 µM
TGI [8]: > 100 µM
TGI [9]: > 100 µM
TGI [10]: > 100 µM
TGI [11]: > 100 µM
TGI [13]: > 100 µM
TGI [14]: > 100 µM
TGI [15]: > 100 µM
TGI [16]: > 100 µM
TGI [17]: > 100 µM
TGI [18]: > 100 µM
TGI [19]: > 100 µM

O=C(CN1C(=O)c2ccccc2C1=O)OCC1CCCN2CCCCC12 (stereo not given)
TGI [3]: > 100 µM
TGI [4]: > 100 µM
TGI [6]: > 100 µM
TGI [7]: > 100 µM
TGI [8]: > 100 µM
TGI [10]: > 100 µM
TGI [11]: > 100 µM
TGI [12]: > 100 µM
TGI [20]: > 100 µM
TGI [13]: > 100 µM
TGI [14]: > 100 µM
TGI [15]: > 100 µM
TGI [16]: > 100 µM
TGI [17]: > 100 µM
TGI [18]: > 100 µM

CO/N=C/c1c(-c2ccc(Cl)cc2)c(/C=N/OC)n2c1sc1ccccc12
TGI [1]: > 100 µM
TGI [2]: > 100 µM
TGI [3]: > 100 µM
TGI [4]: > 100 µM
TGI [5]: > 100 µM
TGI [6]: > 100 µM
TGI [7]: > 100 µM
TGI [8]: > 100 µM
TGI [10]: > 100 µM
TGI [11]: > 100 µM
TGI [12]: > 100 µM
TGI [20]: > 100 µM
TGI [13]: > 100 µM
TGI [14]: > 100 µM
TGI [15]: > 100 µM
TGI [16]: > 100 µM
TGI [17]: > 100 µM
TGI [18]: > 100 µM

C[C@]12CCC(=O)C=C1CC[C@@H]1[C@@H]2CC[C@]2(C)C(=O)/C(=C\c3ccccc3)C[C@@H]12
TGI [1]: > 77.1 µM
TGI [2]: > 100 µM
TGI [3]: > 100 µM
TGI [4]: 73.9 µM
TGI [5]: > 100 µM
TGI [7]: > 50.5 µM
TGI [8]: > 66.2 µM
TGI [9]: > 49.2 µM
TGI [10]: > 68 µM
TGI [11]: 23.3 µM
TGI [12]: 72.7 µM
TGI [20]: 48 µM
TGI [13]: > 56.9 µM
TGI [14]: > 100 µM
TGI [15]: 46.1 µM
TGI [16]: > 64.3 µM
TGI [17]: 62.5 µM
TGI [18]: > 100 µM
TGI [19]: > 66.2 µM

O=C1C=Cc2c(I)sc(I)c21
TGI [1]: 39.7 µM
TGI [2]: > 100 µM
TGI [3]: 34 µM
TGI [4]: 33.4 µM
TGI [5]: 94.6 µM
TGI [8]: > 100 µM
TGI [9]: 27 µM
TGI [10]: > 100 µM
TGI [11]: 18.3 µM
TGI [12]: 67.7 µM
TGI [20]: 87.2 µM
TGI [13]: 38.1 µM
TGI [14]: 33.3 µM
TGI [15]: 64.4 µM
TGI [16]: 50 µM
TGI [17]: 36.7 µM
TGI [18]: 56.8 µM
TGI [19]: 75.8 µM
